# Target: human P2X3 receptor (Homo sapiens (Human), UniProt P56373)
# Assay: P2X3 receptor inhibition, ATP-evoked Fluo-3 calcium fluorescence (FDSS 3000)
# Type: cell-based
# Details: C6BU-1 cell transfected with human P2X3 receptor gene; ATP-evoked Fluo-3 fluorescence
# Procedure: Stably expressing cell line (C6BU-1 cell transfected with human P2X3 receptor gene (GenBank accession number Y07683)) was used. The cells were seeded in a 96-well microtiter plate at a concentration of 8000 cells/well and cultured in the medium (8.3% fetal bovine serum, 8.3% horse serum, 1% antibiotic and antifungal in DMEM) for one day at 37° C. under 5% carbon dioxide atmosphere. The medium was replaced with 4 μM Fluo-3-AM solution (pH7.5) containing 20 mM HEPES, 137 mM NaCl, 2.7 mM KCl, 0.9 mM MgCl2, 5.0 mM CaCl2, 5.6 mM D-glucose, 2.5 mM probenecid, 10% BSA, and 0.08% Pluronic F-127, and incubated at 37° C. under 5% dioxide carbon atmosphere for one hour. The plate was washed with washing buffer (20 mM HEPES, 137 mM NaCl, 2.7 mM KCl, 0.9 mM MgCl2, 5.0 mM CaCl2, 5.6 mM D-glucose, 2.5 mM probenecid, pH7.5), and each well was added with 40 μL of this buffer. The plate was placed in High-Throughput Screening System FDSS 3000 (Hamamatsu Photonics K.K.). Measurement of fluorescence intensity by FDSS 3000 was started, and 40 μL of DMSO solutions containing different concentrations of the test compound as prepared by dilution with dilution buffer (20 mM HEPES, 137 mM NaCl, 2.7 mM KCl, 0.9 mM MgCl2, 5.0 mM CaCl2, 5.6 mM D-glucose, 2.5 mM probenecid, 0.1% Pluronic F-127, pH7.5) were dispensed to each well through the built-in automatic dispenser. Five minutes after, 40 nM ATP solution (50 μL) prepared by dilution with the dilution buffer was dispensed through the built-in automatic dispenser, and the measurement of fluorescence intensity was continued for 3 min. For each well, the specific maximum fluorescence intensity was calculated as the ratio of the maximum fluorescence intensity after addition of the ATP solution to the fluorescence intensity at the starting of the measurement. […] FDSS software (Hamamatsu Photonics K.K.) was used for calculation of the specific maximum fluorescence intensity. IC50 was calculated using Microsoft™ Excel™ (Microsoft Corporation) and XLfit™ (ID Business Solutions Ltd.).
# Sequence of human P2X3 receptor (P56373 whole entry): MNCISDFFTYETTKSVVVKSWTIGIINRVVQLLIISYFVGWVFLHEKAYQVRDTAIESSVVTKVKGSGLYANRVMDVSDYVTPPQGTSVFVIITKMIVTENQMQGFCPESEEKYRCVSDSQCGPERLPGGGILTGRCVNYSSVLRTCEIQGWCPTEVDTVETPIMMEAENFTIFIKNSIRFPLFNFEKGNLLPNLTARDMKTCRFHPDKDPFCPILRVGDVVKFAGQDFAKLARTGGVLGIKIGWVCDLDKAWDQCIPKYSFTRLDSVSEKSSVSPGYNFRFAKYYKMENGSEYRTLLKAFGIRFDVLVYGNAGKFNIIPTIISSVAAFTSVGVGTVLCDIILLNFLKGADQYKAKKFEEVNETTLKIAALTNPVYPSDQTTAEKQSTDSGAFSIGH
row,SMILES,IC50
1,CC(C)(C)C(=O)C1=C(O)C(=O)N(c2ccc(-c3ccsc3)cc2)C1c1ccccc1C(=O)O (stereo not drawn) [Compound I-184],0.163 µM
2,CC(C)C(=O)C1=C(O)C(=O)N(c2ccc(-c3ccoc3)cc2)C1c1ccccc1OCCO (stereo not drawn) [Compound I-190],0.04 µM
3,CC(C)C(=O)C1=C(O)C(=O)N(c2ccc(-c3ccon3)cc2)C1c1ccccc1OCCO (stereo not drawn) [Compound I-191],0.279 µM
4,COc1ccccc1C1C(C(=O)C(C)(C)C)=C(O)C(=O)N1c1ccc(-c2ccsc2Cl)cc1 (stereo not drawn) [Compound I-192],0.612 µM
5,COc1ccccc1C1C(C(=O)C(C)(C)C)=C(O)C(=O)N1c1ccc(-c2cscc2C)cc1 (stereo not drawn) [Compound I-193],0.994 µM
6,COCc1ncccc1C1C(C(=O)C(C)C)=C(O)C(=O)N1c1ccc(-c2ccsc2)cc1 (stereo not drawn) [Compound I-194],0.063 µM
7,CC(C)C(=O)C1=C(O)C(=O)N(c2ccc(-c3ccsc3)cc2)C1c1cccnc1OCC(=O)O (stereo not drawn) [Compound I-195],0.235 µM
8,COc1ccccc1C1C(C(=O)C(C)(C)C)=C(O)C(=O)N1c1ccc(-c2csc(C)c2)cc1 (stereo not drawn) [Compound I-197],0.036 µM
9,CNC(=O)COc1ncccc1C1C(C(=O)C(C)C)=C(O)C(=O)N1c1ccc(-c2ccsc2)cc1 (stereo not drawn) [Compound I-199],0.019 µM
10,CC(C)C(=O)C1=C(O)C(=O)N(c2ccc(-c3ccsc3)cc2)C1c1cccnc1OCC(N)=O (stereo not drawn) [Compound I-200],0.014 µM
11,COCCOc1ccccc1C1C(C(=O)C(C)C)=C(O)C(=O)N1c1ccc(-c2ccoc2)cc1 (stereo not drawn) [Compound I-201],0.039 µM
12,COCc1ccccc1C1C(C(=O)C(C)C)=C(O)C(=O)N1c1ccc(-c2ccoc2)cc1 (stereo not drawn) [Compound I-204],0.043 µM
13,COCCOc1ccccc1[C@@H]1C(C(=O)C(C)C)=C(O)C(=O)N1c1ccc(-c2ccoc2)cc1 [Compound I-208],0.014 µM
14,COCCOc1ccccc1[C@H]1C(C(=O)C(C)C)=C(O)C(=O)N1c1ccc(-c2ccoc2)cc1 [Compound I-209],0.234 µM
15,COc1ccccc1C1C(C(=O)C(C)(C)C)=C(O)C(=O)N1c1ccc(-c2ccc(C)s2)cc1 (stereo not drawn) [Compound I-210],0.047 µM
16,COc1ccccc1C1C(C(=O)c2ccco2)=C(O)C(=O)N1c1ccc(-c2ccsc2)cc1 (stereo not drawn) [Compound I-211],0.157 µM
17,CC(=O)N(C)c1ccccc1C1C(C(=O)C(C)C)=C(O)C(=O)N1c1ccc(-c2ccsc2)cc1 (stereo not drawn) [Compound I-212],0.092 µM
18,COCc1ccccc1C1C(C(=O)C(C)C)=C(O)C(=O)N1c1ccc(-c2cccs2)cc1 (stereo not drawn) [Compound I-215],0.013 µM
19,CCOC(=O)C1C(C(=O)C(C)C)=C(O)C(=O)N1c1ccc(-c2ccsc2)cc1 (stereo not drawn) [Compound I-216],0.679 µM
20,CC(C)C(=O)C1=C(O)C(=O)N(c2ccc(-c3ccsc3)cc2)C1c1ccccc1OCc1nnn[nH]1 (stereo not drawn) [Compound I-217],0.012 µM
21,COc1ccccc1C1C(C(=O)C2CC2)=C(O)C(=O)N1c1ccc(-c2ccsc2)cc1 (stereo not drawn) [Compound I-218],0.073 µM

row,SMILES,IC50
1,CC(C)C(=O)C1=C(O)C(=O)N(c2ccc(-c3ccsc3)cc2)C1c1ccccn1 (stereo not drawn) [Compound I-219],0.324 µM
2,CC(C)C(=O)C1=C(O)C(=O)N(c2ccc(-c3ccsc3)cc2)C1c1ccccc1OCC(=N)NO (stereo not drawn) [Compound I-220],0.005 µM
3,CC(C)C(=O)C1=C(O)C(=O)N(c2ccc(-c3cccs3)cc2)C1c1ccccc1OCCO (stereo not drawn) [Compound I-223],0.012 µM
4,CC(C)C(=O)C1=C(O)C(=O)N(c2ccc(-c3ccco3)cc2)C1c1ccccc1OCCO (stereo not drawn) [Compound I-225],0.065 µM
5,COCCOc1ccccc1C1C(C(=O)C(C)C)=C(O)C(=O)N1c1ccc(-c2cccs2)cc1 (stereo not drawn) [Compound I-226],0.012 µM
6,COCOc1ccccc1C1C(C(=O)C(C)C)=C(O)C(=O)N1c1ccc(-c2cccs2)cc1 (stereo not drawn) [Compound I-227],0.008 µM
7,COCCOc1ncccc1C1C(C(=O)C(C)C)=C(O)C(=O)N1c1ccc(-c2cccs2)cc1 (stereo not drawn) [Compound I-228],0.015 µM
8,CC(C)C(=O)C1=C(O)C(=O)N(c2ccc(-c3cccs3)cc2)C1c1cccnc1OCCO (stereo not drawn) [Compound I-229],0.029 µM
9,COCOc1ccccc1C1C(C(=O)C(C)C)=C(O)C(=O)N1c1ccc(-c2ccco2)cc1 (stereo not drawn) [Compound I-230],0.018 µM
10,COCCOc1ccccc1C1C(C(=O)C(C)C)=C(O)C(=O)N1c1ccc(-c2ccco2)cc1 (stereo not drawn) [Compound I-231],0.023 µM
11,COCOc1ccccc1C1C(C(=O)C(C)C)=C(O)C(=O)N1c1ccc(-c2ccoc2)cc1 (stereo not drawn) [Compound I-232],0.024 µM
12,CC(C)C(=O)C1=C(O)C(=O)N(c2ccc(-c3ccoc3)cc2)C1c1cccnc1OCCO (stereo not drawn) [Compound I-233],0.124 µM
13,COCCOc1ncccc1C1C(C(=O)C(C)C)=C(O)C(=O)N1c1ccc(-c2ccoc2)cc1 (stereo not drawn) [Compound I-234],0.056 µM
14,CC(C)C(=O)C1=C(O)C(=O)N(c2ccc(-c3ccsc3)cc2)C1c1ccccc1C(=O)N(C)C (stereo not drawn) [Compound I-245],0.047 µM
15,COCCOc1ncccc1C1C(C(=O)CC(C)C)=C(O)C(=O)N1c1ccc(-c2ccsc2)cc1 (stereo not drawn) [Compound I-248],0.03 µM
16,COCOc1ccccc1C1C(C(=O)CC(C)C)=C(O)C(=O)N1c1ccc(-c2ccsc2)cc1 (stereo not drawn) [Compound I-249],0.01 µM
17,CC(C)CC(=O)C1=C(O)C(=O)N(c2ccc(-c3ccsc3)cc2)C1c1ccccc1OCCO (stereo not drawn) [Compound I-250],0.029 µM
18,COCCOc1ccccc1C1C(C(=O)CC(C)C)=C(O)C(=O)N1c1ccc(-c2ccsc2)cc1 (stereo not drawn) [Compound I-251],0.017 µM
19,COCc1ccccc1C1C(C(=O)CC(C)C)=C(O)C(=O)N1c1ccc(-c2ccsc2)cc1 (stereo not drawn) [Compound I-252],0.01 µM
20,CNC(=C(C)C)C1=C(O)C(=O)N(c2ccc(-c3ccsc3)cc2)C1c1cccnc1O (stereo not drawn) [Compound I-253],0.193 µM

# The next lines start with the values.
row,IC50,SMILES
1,0.004 µM,CC(C)C(=O)C1=C(O)C(=O)N(c2ccc(-c3ccsc3)cc2)C1c1ccccc1OCC#N (stereo not drawn) [Compound I-183]
2,0.111 µM,CC(C)C(=O)C1=C(O)C(=O)N(c2ccc(-c3ccsc3)cc2)C1c1ccccc1OCC(=O)O (stereo not drawn) [Compound I-185]
3,0.013 µM,COCc1ccccc1C1C(C(=O)C(C)C)=C(O)C(=O)N1c1ccc(-c2ccsc2)cc1 (stereo not drawn) [Compound I-186]
4,0.086 µM,COc1ncccc1C1C(C(=O)C(C)C)=C(O)C(=O)N1c1ccc(-c2ccsc2)cc1 (stereo not drawn) [Compound I-187]
5,0.022 µM,CNC(=O)COc1ccccc1C1C(C(=O)C(C)C)=C(O)C(=O)N1c1ccc(-c2ccsc2)cc1 (stereo not drawn) [Compound I-188]
6,0.014 µM,CC(C)C(=O)C1=C(O)C(=O)N(c2ccc(-c3ccsc3)cc2)C1c1ccccc1OCC(N)=O (stereo not drawn) [Compound I-189]
7,0.064 µM,COc1ccccc1C1C(C(=O)C(C)C)=C(O)C(=O)N1c1ccc(-c2ccoc2)cc1 (stereo not drawn) [Compound I-198]
8,0.04 µM,COc1ccccc1[C@@H]1C(C(=O)C(C)C)=C(O)C(=O)N1c1ccc(-c2ccoc2)cc1 [Compound I-202]
9,0.006 µM,COCOc1ccccc1C1C(C(=O)C(C)C)=C(O)C(=O)N1c1ccc(-c2ccsc2)cc1 (stereo not drawn) [Compound I-213]
10,0.022 µM,COc1ccccc1C1C(C(=O)C(C)C)=C(O)C(=O)N1c1ccc(-c2cccs2)cc1 (stereo not drawn) [Compound I-214]
11,0.081 µM,COc1cc(N2C(=O)C(O)=C(C(=O)C(C)C)C2c2ccccc2OC)ccc1-c1ccsc1 (stereo not drawn) [Compound I-221]
12,0.006 µM,COCCOc1ccccc1[C@@H]1C(C(=O)C(C)C)=C(O)C(=O)N1c1ccc(-c2ccsc2)cc1 [Compound I-222]
13,0.073 µM,COc1ccccc1C1C(C(=O)C(C)C)=C(O)C(=O)N1c1ccc(-c2ccco2)cc1 (stereo not drawn) [Compound I-224]
14,0.035 µM,COc1ccccc1C1C(C(=O)C(C)C)=C(O)C(=O)N1c1ccc(-c2ccsc2)c(F)c1 (stereo not drawn) [Compound I-235]
15,0.431 µM,COc1ccccc1C1C(C(=O)C(C)C)=C(O)C(=O)N1c1ccc(-c2ccsc2)c(C)c1 (stereo not drawn) [Compound I-236]
16,0.705 µM,COc1ccccc1C1C(C(=O)C(C)C)=C(O)C(=O)N1c1ccc(-c2ccsc2)c(N)c1 (stereo not drawn) [Compound I-237]
17,0.035 µM,COc1ccccc1C1C(C(=O)CC(C)C)=C(O)C(=O)N1c1ccc(-c2ccsc2)cc1 (stereo not drawn) [Compound I-239]
18,0.185 µM,COc1ccccc1C1C(C(=O)C(C)C)=C(O)C(=O)N1c1ccc(-c2ccsc2)c(O)c1 (stereo not drawn) [Compound I-240]
19,0.822 µM,COc1ccccc1C1C(C(=O)C(C)C)=C(O)C(=O)N1c1ccc(-c2ccsc2)c(CO)c1 (stereo not drawn) [Compound I-241]
20,0.357 µM,COc1ccccc1C1C(C(=O)C(C)C)=C(O)C(=O)N1c1ccc(-c2ccsc2)c(N(C)C)c1 (stereo not drawn) [Compound I-242]
21,0.027 µM,CC(C)C(=O)C1=C(O)C(=O)N(c2ccc(-c3ccsc3)cc2)C1c1ccccc1C#N (stereo not drawn) [Compound I-244]
22,0.015 µM,COCCc1ccccc1C1C(C(=O)C(C)C)=C(O)C(=O)N1c1ccc(-c2ccsc2)cc1 (stereo not drawn) [Compound I-247]

# — patent US8575197B2, “Pyrolinone derivative and pharmaceutical composition comprising the same” (Shionogi & Co., Ltd., priority 2008, dated 2013)
